Test results reported in US20240360107A1, “AN EIF4A INHIBITOR WITH A NOVEL MECHANISM OF ACTION” (ARIZONA BOARD OF REGENTS ON BEHALF OF THE UNIVERSITY OF …, priority 2021, published 2024).
Entries after “also recorded” stand apart in the source; their conditions may differ.

How the values were obtained:
[1] = tested on: BJAB Burkitt lymphoma cells; test: CellTiter-Glo Luminescent Cell Viability assay; assay type: cell-based; details: 72 h; for effect on BJAB cell viability: top concentration 10 uM
Procedure: Compounds 1 and compound 28 were evaluated in a CellTiter-Glo (CTG) Luminescence cell viability assay in BJAB Burkitt lymphoma cells that are known to be sensitive to eIF4A inhibition. This assay quantitates the number of living, metabolically active cells by measuring their ATP levels.
Cell viability assay. BJAB lymphoma cells were plated in quadruplicate at 5,000 cells/well in serial dilutions of drug ranging two logs with the top concentration of compounds tested at 10 uM. Viability was measured after 72 h using Cell Titer Glo (Promega G7573) following the manufacturer's protocol. Luminescence was detected on the BioTek HT Synergy plate reader and values were normalized to vehicle-treated (DMSO) wells. Silvestrol was included as a positive control (not shown).

[2] = target: T1, eIF4A (Homo sapiens, UniProt P60842); test: RNA-stimulated malachite green ATPase assay; assay type: biochemical; parameters: 6xHis with TEV protease site (N, cleaved yes); made in house; host or cells: E. coli BL21-CodonPlus; details: for potency in the eIF4A ATPase assay (in words): comparison within the series
Procedure: Human eIF4A protein was produced recombinantly and a greater than 100,000-compound screen for inhibitors was completed using a malachite green ATPase assay (FIG. 11A). […] A stable mixture of yeast RNAs was added in an effort to improve this system and create a more biologically relevant eIF4A assay. eIF4A ATPase activity was accelerated without a statistically significant increase in the background signal in the presence of this RNA (FIG. 11B), and the new conditions gave excellent statistical parameters in a 384-well plate format (FIG. 11C).
ATPase assay. Recombinant WT or mutant eIF4A was added to a clear bottom 384 well plate (Greiner) in ATPase buffer (20 mM Tris pH 7.4, 80 mM KCl, 2.5 mM MgCl2, 1 mM DTT, 1% glycerol). Compounds were added and the plate was incubated at 37° C. for 20 min. ATP/RNA solution was added to afford a 20 μL per well reaction volume with 750 nM eIF4A, 250 μM ATP, and 0.25 mg/mL Yeast RNA (Sigma) for the initial screen and dose responses, and varying concentrations of ATP and RNA for the kinetic assays. The plate was incubated for 4 h at 37° C. for the initial screen and dose responses, and at seven time points (1 hour-7 hours) for kinetic assays. 0.04% v/v (final concentration) Tween-20 was added to a Malachite Green solution, and the Malachite Green (40 μL per well) was added. The solution was incubated for 5 minutes at room temperature and Absorbance at 660 nm was read on a SpectraMax iD5 plate reader (Molecular Devices).
Target sequence in this assay (P60842 whole entry): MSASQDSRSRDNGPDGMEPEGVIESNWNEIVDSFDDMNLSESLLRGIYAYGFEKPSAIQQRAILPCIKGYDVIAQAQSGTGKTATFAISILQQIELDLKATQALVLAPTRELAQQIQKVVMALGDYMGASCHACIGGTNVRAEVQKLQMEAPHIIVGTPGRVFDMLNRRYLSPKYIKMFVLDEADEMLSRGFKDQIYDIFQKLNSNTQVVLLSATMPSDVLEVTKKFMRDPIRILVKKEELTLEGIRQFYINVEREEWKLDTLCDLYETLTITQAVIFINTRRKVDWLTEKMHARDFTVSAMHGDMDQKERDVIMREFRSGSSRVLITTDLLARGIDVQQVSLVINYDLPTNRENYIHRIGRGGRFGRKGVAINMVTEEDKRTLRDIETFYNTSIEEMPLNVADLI

[3] = target: T1, eIF4A; test: MANT-ATP fluorescence polarization assay; assay type: binding; parameters: 6xHis with TEV protease site (N, cleaved yes); made in house; host or cells: E. coli BL21-CodonPlus; details: compound 200 μM or ADP 1 mM; MANT-ATP 100 nM
Procedure: Additional biochemical testing was performed on compound 28 to investigate its mechanism of eIF4A inhibition. Initially, kinetics experiments were repeated with compound 28, and the results for compound 28 matched those of compound 1 (FIG. 5D, 4A). Upon addition of compound 28, Km and Vmax of eIF4A decreased with respect to ATP. With respect to RNA, eIF4A Km […] and Vmax remained constant. […] Fluorescence polarization (FP) assays were utilized to confirm this mechanism of inhibition by testing the ability of compound 28 to compete fluorescent substrates off eIF4A. First, an FP assay was performed with MANT-ATP, a fluorescent, non-hydrolysable ATP analog, as the substrate.
MANT-ATP fluorescence polarization assay. Recombinant eIF4A (15 μM) was added to a low-volume black 384 well plate (Greiner). Yeast RNA (0.25 mg/mL) was added along with compound (200 μM) or ADP (1 mM) and the plate was incubated for 20 min. MANT-ATP was added (100 nM) and the plate was incubated for 30 min before fluorescence polarization was read at 355 nm:448 nm (Ex:Em) on a SpectraMax iD5 plate reader (Molecular Devices).
Target sequence in this assay (P60842 whole entry): as above

[4] = tested on: HCV IRES-dependent translation of Renilla luciferase; test: in vitro translation of bicistronic luciferase reporter in rabbit reticulocyte lysate, Renilla luciferase; assay type: biochemical; details: Cycloheximide 600 μM, Silvestrol 100 nM
Description: (§1) A bicistronic luciferase reporter ([…]) (FIG. 7B, top) was programmed into rabbit reticulocyte lysates, cellular extracts capable of performing both cap-dependent and Hepatitis C virus (HCV) internal ribosomal entry site (IRES)-mediated translation. eIF4A is the enzymatic driver of cap-dependent translation and is not involved in translation through HCV IRES. Compounds that inhibit eIF4A should inhibit cap-dependent translation of firefly (FF) luciferase while leaving IRES-mediated translation of Renilla (Ren) luciferase relatively unaffected. The inhibitory activities of cycloheximide, silvestrol, and 28 were assessed in this in vitro translation assay (FIG. 7B, bottom). […] The ability of compound 28 to preferentially target cap-dependent translation in a similar manner as silvestrol provides promising evidence that 28 inhibits eIF4A and not other proteins in the general translational machinery.
(§2) The dual-luciferase reporter plasmid pSP/(CAG)33/FF/HCV/Ren-pA51 was linearized with BamHI and subsequently in vitro transcribed using the Promega mMessage mMachine SP6 transcription kit, according to manufacturer's specifications. RNA was precipitated with LiCI and resuspended in H2O for use in in vitro translation experiments. Rabbit reticulocyte lysate (RRL) (nuclease-treated, Promega) was used to assess inhibitory effects of 28 on translation of the dual-reporter. Briefly, a reaction consisting of 50% RRL, 30 ng/μL reporter RNA, 10 μM Amino Acid Mixture Minus Methionine, 10 μM Amino Acid Mixture Minus Leucine, […], 1 U/μL RNAseOut (Thermo), and drug (final DMSO concentration 1%) were incubated at 30° C. for 90 minutes. The reaction was quenched with 50 μL 1× Passive Lysis Buffer (Promega), 10 μL of the mix was transferred to a 96-well white plate (Cellstar), and the Dual-Reporter Luciferase Assay System (Promega) was used to generate luminescence according to the manufacturer's instructions. Luminescence was detected using a plate reader (BioTek HT Synergy).

[5] = target: T1, eIF4A; test: Cellular Thermal Shift Assay (CETSA) in A549 cells; assay type: cell-based; parameters: endogenous in cells; host or cells: A549 cells; details: 90 min, 55° C., silvestrol 100 nM
Procedure: In CETSA, thermal stability of a protein is assessed by heating cells and then separating insoluble, aggregated, or denatured proteins from soluble proteins through supernatant/pellet fractionation. Levels of the protein of interest (eIF4A) remaining in the soluble fraction are then measured by western blot. The principle of CETSA is similar to differential scanning fluorimetry (DSF), in that thermal stability and solubility of a protein increases upon binding a ligand.
Cellular Thermal Shift Assay (CETSA). A549 cells were seeded into wells in 6-well plates and on the following day were exposed to 28 or silvestrol (100 nM) for 90 min. Cells were harvested, resuspended in 50 μL DMEM, and dispensed into thin-walled PCR tubes. Cells were subjected to 3 min of heat at 55° C. in a thermocycler (miniPCR). After heating, cells were left to cool for 3 min and then snap-frozen on dry ice. Cells were subjected to 3 rapid freeze thaws with 15 seconds of vortexing after each thaw. After the first thaw, 1 μL of a dissolved Pierce protease inhibitor tablet (ThermoFisher—A32963) was added to the cell lysate. Cell lysates were centrifuged at 20,000×g for 20 min. […] All immunoblot images were taken using the Azure 600 imaging system (Azure Biosystems) and analyzed using ImageJ 1.51s (NIH). […]
Target sequence in this assay (P60842 2-406): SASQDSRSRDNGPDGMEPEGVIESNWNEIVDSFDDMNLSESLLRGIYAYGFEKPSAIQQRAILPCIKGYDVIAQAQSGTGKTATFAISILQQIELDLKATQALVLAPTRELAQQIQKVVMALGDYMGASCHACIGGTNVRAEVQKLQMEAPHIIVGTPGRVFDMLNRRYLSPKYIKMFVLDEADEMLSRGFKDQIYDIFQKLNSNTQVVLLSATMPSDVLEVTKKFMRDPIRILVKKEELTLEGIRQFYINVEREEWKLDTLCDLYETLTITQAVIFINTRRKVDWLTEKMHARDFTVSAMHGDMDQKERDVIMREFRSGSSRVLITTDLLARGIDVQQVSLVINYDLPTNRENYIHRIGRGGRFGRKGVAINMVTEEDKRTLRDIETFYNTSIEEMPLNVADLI

[6] = tested on: cap-dependent translation of firefly luciferase; test: in vitro translation of bicistronic luciferase reporter in rabbit reticulocyte lysate, firefly luciferase; assay type: biochemical; details: Cycloheximide 600 μM, Silvestrol 100 nM
Description: as §1, §2

| Compound | effect on BJAB cell viability [1] | potency in the eIF4A ATPase assay (in words) [2] | other results |
| --- | --- | --- | --- |
| CCCCc1ccc(-c2ccc(-c3cc(C(=O)OCC)c4cc([N+](=O)[O-])ccc4n3)o2)cc1 [Compound 29, ethyl 2-(5-(4-butylphenyl)furan-2-yl)-6-nitroquinoline-4-carboxylate] | did not inhibit cellular viability | not potent in the ATPase assay; also recorded: lost all eIF4A potency |  |
| CCCCc1ccc(-c2ccc(-c3cc(C(=O)O)c4cc(NC(C)=O)ccc4n3)o2)cc1 [Compound 25, 6-acetamido-2-(5-(4-butylphenyl)furan-2-yl)quinoline-4-carboxylic acid] | do not decrease BJAB cellular viability | lose potency in the ATPase assay; also recorded: major losses in potency |  |
| Nc1cccc(-c2ccc(-c3cc(C(=O)O)c4cc([N+](=O)[O-])ccc4n3)o2)c1 [Compound 47, 2-(5-(3-aminophenyl)furan-2-yl)-6-nitroquinoline-4-carboxylic acid] | do not inhibit BJAB cell viability | low potency; also recorded: lose potency in the ATPase assay |  |
| CCCCc1ccc(-c2ccc(-c3cc(C(=O)O)c4cc(N)ccc4n3)o2)cc1 [Compound 24, 6-amino-2-(5-(4-butylphenyl)furan-2-yl)quinoline-4-carboxylic acid] | do not decrease BJAB cellular viability | lose potency in the ATPase assay; also recorded: major losses in potency |  |
| Nc1ncnc2c1ncn2[C@@H]1O[C@H](COP(=O)(O)OP(=O)(O)O)[C@@H](O)[C@H]1O [ADP, reference compound] |  |  | competition of MANT-ATP off eIF4A [3]: able to compete MANT-ATP out of its binding pocket |
| COC(=O)[C@H]1[C@@H](O)[C@@]2(O)c3c(OC)cc(O[C@@H]4O[C@@H]([C@H](O)CO)CO[C@H]4OC)cc3O[C@@]2(c2ccc(OC)cc2)[C@@H]1c1ccccc1 [silvestrol, reference compound] |  |  | effect on HCV IRES-mediated translation (Renilla luciferase) [4]: only show a modest effect on HCV IRES-dependent translation of Renilla luciferase; thermal stability of eIF4A in cells (CETSA) [5]: increased thermal stability of eIF4A; effect on cap-dependent translation (firefly luciferase) [6]: inhibit cap-dependent translation of firefly luciferase |
| Nc1ccc(-c2ccc(-c3cc(C(=O)O)c4cc([N+](=O)[O-])ccc4n3)o2)cc1 [Compound 46, 2-(5-(4-aminophenyl)furan-2-yl)-6-nitroquinoline-4-carboxylic acid] | do not inhibit BJAB cell viability | low potency; also recorded: lose potency in the ATPase assay |  |
| CCCCc1ccc(-c2ccc(-c3cc(C(=O)O)c4ccc(Cl)cc4n3)o2)cc1 [Compound 9, 2-(5-(4-butylphenyl)furan-2-yl)-7-chloroquinoline-4-carboxylic acid] |  | moderate potency; also recorded: performing the best in the ATPase assay of any inhibitor produced | EC50 ([1]; Homo sapiens, CellTiter-Glo, n=4): 4.29 ± 0.23 µM; IC50 ([2]; 750 nM eIF4A, 250 μM ATP, 0.25 mg/mL Yeast RNA, 4 h at 37° C.): 21.7 ± 3.39 µM |
| C[C@@H]1C[C@@H]([C@H](O)CC2CC(=O)NC(=O)C2)C(=O)[C@@H](C)C1 [Cycloheximide, reference compound] |  |  | effect on HCV IRES-mediated translation (Renilla luciferase) [4]: inhibits both cap-dependent and IRES-mediated translation; effect on cap-dependent translation (firefly luciferase) [6]: inhibits both cap-dependent and IRES-mediated translation |
